Columns and labels:
[1] = target: T1, mouse Siglec-2-Fc-Avi (CD22) (Mus musculus, UniProt P35329); test: SPR binding affinity to mouse CD22; conditions: steady-state analysis
T1 construct: made in house
T1 sequence (P35329 22-708 limits assumed): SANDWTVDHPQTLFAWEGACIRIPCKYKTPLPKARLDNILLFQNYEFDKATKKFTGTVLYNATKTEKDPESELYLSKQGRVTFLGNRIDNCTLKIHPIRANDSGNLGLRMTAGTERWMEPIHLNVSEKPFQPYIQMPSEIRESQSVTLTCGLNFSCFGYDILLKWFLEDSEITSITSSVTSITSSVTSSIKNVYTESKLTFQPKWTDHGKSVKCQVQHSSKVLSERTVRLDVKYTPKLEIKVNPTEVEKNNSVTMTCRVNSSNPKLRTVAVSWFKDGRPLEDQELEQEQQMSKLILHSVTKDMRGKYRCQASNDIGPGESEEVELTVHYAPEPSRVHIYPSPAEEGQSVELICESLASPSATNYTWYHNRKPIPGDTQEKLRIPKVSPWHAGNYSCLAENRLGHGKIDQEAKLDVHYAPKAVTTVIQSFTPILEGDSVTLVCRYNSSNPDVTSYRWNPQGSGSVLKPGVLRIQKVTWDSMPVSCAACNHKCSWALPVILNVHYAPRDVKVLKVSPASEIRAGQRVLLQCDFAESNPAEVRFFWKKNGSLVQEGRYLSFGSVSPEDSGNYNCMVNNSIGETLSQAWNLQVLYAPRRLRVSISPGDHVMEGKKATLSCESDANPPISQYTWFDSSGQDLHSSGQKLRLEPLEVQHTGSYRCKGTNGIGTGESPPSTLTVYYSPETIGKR
Description: (§1) Prior to immobilization, CD22 proteins were treated with SialoExo (Genovis, Cat #G1-SM1-020) for 4 hours at 37° C. to remove native sialic acid residues.
(§2) Capture of biotinylated CD22 constructs was performed using a Cytiva SA chip (BR100398) on a Biacore 8K instrument.
(§3) Binding experiments of Siglec-ligand conjugated proteins or Siglec ligand compounds were performed on the surfaces prepared above in 10 mM HEPES, 150 mM NaCl, 0.05% Tween-20, pH 7.5, 1% DMSO as the running buffer. […] The compounds were then allowed to dissociate from the surface for 120 seconds. […] Solvent correction was performed using 0.5, 1, 1.5, and 2% DMSO spike into running buffer without DMSO. […] Data was analyzed using steady-state analysis in Biacore Insight Evaluation Software, version 3.0 for Siglec ligand compounds.

[2] = target: T2, human Siglec-2/CD22 protein (Homo sapiens, UniProt P20273); test: SPR binding affinity to human CD22; conditions: steady-state analysis
T2 construct: purchased Acro Biosystems SI2-H82E3
T2 sequence (P20273 20-847): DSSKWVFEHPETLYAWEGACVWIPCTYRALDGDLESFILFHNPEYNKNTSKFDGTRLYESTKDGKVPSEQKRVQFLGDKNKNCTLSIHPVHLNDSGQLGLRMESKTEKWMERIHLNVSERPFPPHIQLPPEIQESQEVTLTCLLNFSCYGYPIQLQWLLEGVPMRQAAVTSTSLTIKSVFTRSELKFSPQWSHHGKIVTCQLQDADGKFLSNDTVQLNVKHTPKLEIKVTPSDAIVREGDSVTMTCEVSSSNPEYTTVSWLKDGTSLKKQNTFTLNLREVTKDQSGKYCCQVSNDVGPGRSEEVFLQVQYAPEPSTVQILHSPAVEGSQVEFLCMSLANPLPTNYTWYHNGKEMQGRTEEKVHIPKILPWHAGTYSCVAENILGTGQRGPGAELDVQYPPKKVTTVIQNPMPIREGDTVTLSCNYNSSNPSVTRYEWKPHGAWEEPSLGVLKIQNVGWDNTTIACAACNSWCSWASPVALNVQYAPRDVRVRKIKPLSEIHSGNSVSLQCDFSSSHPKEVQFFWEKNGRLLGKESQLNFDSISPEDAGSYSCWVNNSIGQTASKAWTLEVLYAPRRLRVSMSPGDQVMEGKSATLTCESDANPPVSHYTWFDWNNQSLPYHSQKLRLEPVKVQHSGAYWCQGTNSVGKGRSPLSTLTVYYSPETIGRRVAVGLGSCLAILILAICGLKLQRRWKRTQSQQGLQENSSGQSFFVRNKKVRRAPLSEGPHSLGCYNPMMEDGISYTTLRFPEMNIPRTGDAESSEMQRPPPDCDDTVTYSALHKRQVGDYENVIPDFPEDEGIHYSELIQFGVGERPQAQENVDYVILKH
Description: as §1, §2, §3

Row | Compound | Kd [1] [nM] | Kd [2] [nM]
1 | C#CCOCCCCCCS[C@]1(C(=O)O)C[C@H](O)[C@@H](NC(=O)CO)[C@H]([C@H](O)[C@H](O)CNC(=O)c2cccc(Oc3ccccc3)c2)O1 [Compound 255, (2S,4S,5R,6R)-6-((1R,2R)-1,2-dihydroxy-3-(3-phenoxybenzamido)propyl)-4-hydroxy-5-(2-hydroxyacetamido)-2-((6-(prop-2-yn-1-yloxy)hexyl)thio) tetrahydro-2H-pyran-2-carboxylic acid] | 1000 to 10000 | < 1000
2 | CC(=O)NCCOCCOCCOCCOCCn1cc(CCCCCCO[C@]2(C(=O)O)C[C@H](O)[C@@H](NC(=O)CO)[C@H]([C@H](O)[C@H](O)CNC(=O)Cc3ccc(Cl)cc3)O2)nn1 [Compound 263, (2R,4S,5R,6R)-6-((1R,2R)-3-(2-(4-chlorophenyl)acetamido)-1,2-dihydroxypropyl)-4-hydroxy-5-(2-hydroxyacetamido)-2-((6-(1-(2-oxo-6,9,12,15-tetraoxa-3-azaheptadecan-17-yl)-1H-1,2,3-triazol-4-yl)hexyl)oxy)tetrahydro-2H-pyran-2-carboxylic acid] | 1000 to 10000 | < 1000
3 | CC(=O)NCCOCCOCCOCCOCCn1cc(COCCCCCCO[C@]2(C(=O)O)C[C@H](O)[C@@H](NC(=O)CO)[C@H]([C@H](O)[C@H](O)CNC(=O)Cc3ccc(C(F)F)cc3)O2)nn1 [Compound 261, (2R,4S,5R,6R)-6-((1R,2R)-3-(2-(4-(difluoromethyl)phenyl)acetamido)-1,2-dihydroxypropyl)-4-hydroxy-5-(2-hydroxyacetamido)-2-((6-((1-(2-oxo-6,9,12,15-tetraoxa-3-azaheptadecan-17-yl)-1H-1,2,3-triazol-4-yl)methoxy)hexyl)oxy)tetrahydro-2H-pyran-2-carboxylic acid] | < 1000 | < 1000
4 | C#CCOP(=O)(O)OCCCCO[C@]1(C(=O)O)C[C@H](O)[C@@H](NC(=O)CO)[C@H]([C@H](O)[C@H](O)CNC(=O)Cc2ccc(Cl)cc2)O1 [Compound 115, (2R,4S,5R,6R)-6-((1R,2R)-3-(2-(4-chlorophenyl)acetamido)-1,2-dihydroxypropyl)-4-hydroxy-2-(4-((hydroxy(prop-2-yn-1-yloxy)phosphoryl)oxy)butoxy)-5-(2-hydroxyacetamido)tetrahydro-2H-pyran-2-carboxylic acid] | 1000 to 10000 | < 1000
5 | C#CCCOc1ccc(CO[C@]2(C(=O)O)C[C@H](O)[C@@H](NC(=O)CO)[C@H]([C@H](O)[C@H](O)CNC(=O)Cc3ccc(N4CCOCC4)cc3)O2)cc1 [Compound 139, (2R,4S,5R,6R)-2-((4-(but-3-yn-1-yloxy)benzyl)oxy)-6-((1R,2R)-1,2-dihydroxy-3-(2-(4-morpholinophenyl)acetamido)propyl)-4-hydroxy-5-(2-hydroxyacetamido)tetrahydro-2H-pyran-2-carboxylic acid] | < 1000 | 1000 to 10000
6 | CC(=O)NCCOCCOCCOCCOCCNC(=O)NCCCCCCO[C@]1(C(=O)O)C[C@H](O)[C@@H](NC(C)=O)[C@H]([C@H](O)[C@H](O)CNC(=O)c2cccc(Cl)c2)O1 [Compound 269, (2R,4S,5R,6R)-5-acetamido-6-((1R,2R)-3-(3-chlorobenzamido)-1,2-dihydroxypropyl)-2-((2,19-dioxo-6,9,12,15-tetraoxa-3,18,20-triazahexacosan-26-yl)oxy)-4-hydroxytetrahydro-2H-pyran-2-carboxylic acid] | > 10000 | 1000 to 10000
7 | CC(=O)NCCOCCOCCOCCOCCNC(=O)CCCCCCO[C@]1(C(=O)O)C[C@H](O)[C@@H](NC(C)=O)[C@H]([C@H](O)[C@H](O)CNC(=O)c2cccc(Cl)c2)O1 [Compound 270, (2R,4S,5R,6R)-5-acetamido-6-((1R,2R)-3-(3-chlorobenzamido)-1,2-dihydroxypropyl)-2-((2,19-dioxo-6,9,12,15-tetraoxa-3,18-diazapentacosan-25-yl)oxy)-4-hydroxytetrahydro-2H-pyran-2-carboxylic acid] | > 10000 | 1000 to 10000

Next, values leading:

Row | Kd [1] [nM] | Kd [2] [nM] | Compound
8 | < 1000 | < 1000 | C#CCOCCCCCCO[C@]1(C(=O)O)C[C@H](O)[C@@H](NC(=O)CO)[C@H]([C@H](O)[C@H](O)CNC(=O)Cc2ccc(-c3ccc(NC(C)=O)cc3)cc2)O1 [Compound 204, (2R,4S,5R,6R)-6-((1R,2R)-3-(2-(4′-acetamido-[1,1′-biphenyl]-4-yl)acetamido)-1,2-dihydroxypropyl)-4-hydroxy-5-(2-hydroxyacetamido)-2-((6-(prop-2-yn-1-yloxy)hexyl)oxy)tetrahydro-2H-pyran-2-carboxylic acid]
9 | 1000 to 10000 | 1000 to 10000 | C#CCOCCOCCNc1c(NCCCCCCO[C@]2(C(=O)O)C[C@H](O)[C@@H](NC(=O)CO)[C@H]([C@H](O)[C@H](O)CNC(=O)c3ccccc3Cl)O2)c(=O)c1=O [Compound 229, (2R,4S,5R,6R)-6-((1R,2R)-3-(2-chlorobenzamido)-1,2-dihydroxypropyl)-2-((6-((3,4-dioxo-2-((2-(2-(prop-2-yn-1-yloxy)ethoxy)ethyl)amino)cyclobut-1-en-1-yl)amino)hexyl)oxy)-4-hydroxy-5-(2-hydroxyacetamido)tetrahydro-2H-pyran-2-carboxylic acid]
10 | > 10000 | < 1000 | C#CCOCCCCCCO[C@]1(C(=O)O)C[C@H](O)[C@@H](NC(=O)c2ccccc2)[C@H]([C@H](O)[C@H](O)CNC(=O)Cc2ccc(Cl)cc2)O1 [Compound 92, (2R,4S,5R,6R)-5-benzamido-6-((1R,2R)-3-(2-(4-chlorophenyl)acetamido)-1,2-dihydroxypropyl)-4-hydroxy-2-((6-(prop-2-yn-1-yloxy)hexyl)oxy)tetrahydro-2H-pyran-2-carboxylic acid]
11 | 1000 to 10000 | < 1000 | C#CCOCCCCCCO[C@]1(C(=O)O)C[C@H](O)[C@@H](NC(=O)NCC)[C@H]([C@H](O)[C@H](O)CNC(=O)Cc2ccc(Cl)cc2)O1 [Compound 87, (2R,4S,5R,6R)-6-((1R,2R)-3-(2-(4-chlorophenyl)acetamido)-1,2-dihydroxypropyl)-5-(3-ethylureido)-4-hydroxy-2-((6-(prop-2-yn-1-yloxy)hexyl)oxy)tetrahydro-2H-pyran-2-carboxylic acid]
12 | 1000 to 10000 | 1000 to 10000 | C#CCOCCCCCCS[C@]1(C(=O)O)C[C@H](O)[C@@H](NC(=O)CO)[C@H]([C@H](O)[C@H](O)CNC(=O)c2ccc(Cl)cc2)O1 [Compound 251, (2S,4S,5R,6R)-6-((1R,2R)-3-(4-chlorobenzamido)-1,2-dihydroxypropyl)-4-hydroxy-5-(2-hydroxyacetamido)-2-((6-(prop-2-yn-1-yloxy)hexyl)thio) tetrahydro-2H-pyran-2-carboxylic acid]
13 | 1000 to 10000 | 1000 to 10000 | CC(=O)NCCOCCOCCOCCOCCC(=O)NCCCCCO[C@]1(C(=O)O)C[C@H](O)[C@@H](NC(C)=O)[C@H]([C@H](O)[C@H](O)CNC(=O)Cc2ccc(Cl)cc2)O1 [Compound 249, (2R,4S,5R,6R)-5-acetamido-6-((1R,2R)-3-(2-(4-chlorophenyl)acetamido)-1,2-dihydroxypropyl)-2-((2,18-dioxo-6,9,12,15-tetraoxa-3,19-diazatetracosan-24-yl)oxy)-4-hydroxytetrahydro-2H-pyran-2-carboxylic acid]

— patent US20250064941A1, “SIGLEC LIGANDS, CONJUGATES, AND METHODS OF USE THEREOF” (Osprey Biopharmaceuticals, Inc., priority 2023, published 2025)
